Measurements published in US20250195551A1 (L4 BIO LLC, priority 2023, published 2025).

Assays:
[1] = Excipient compatibility study; assay type: physicochemical; conditions: for Total Impurities % (excluding API impurities %) / Chromatographic purity by HPLC (Assay): 40° C./75% RH
Experimental: An excipient compatibility study was initiated with selected excipients ranging from oils to surfactants based on equilibrium solubility results (Table 2). […] After solutions were prepared using a hand-held homogenizer (Model IKAT10 Ultra-Turrax), each excipient sample was aliquoted in amber vials, approximately 10% water was added in each excipient aliquot, and bench scale gel stripe OET-004037 was also made and added in a separate set of aliquot samples at approximately 1:1 w/w.
All samples were stored at 40° C./75% relative humidity (RH) condition (Model: Lunaire environmental chamber) and tested by developmental reversed phase HPLC method for Assay/Related Substances at T=0, 2 weeks, and 1 month.

[2] = Pharmacokinetic profiles of Ivermectin B1a in Sprague Dawley rat plasma after IV and oral administration; assay type: in vivo, Sprague Dawley rats; conditions: Ivermectin B1a in SD rat plasma; single IV 2 mg/kg; fasting; male
Experimental: Thirty-six male Sprague Dawley rats were randomly assigned into four groups, with nine male rats in each group. All animals in all groups are fasted overnight prior to the experimental date.
Blood samples were collected from 6 of 9 animals per group at 0.5, 1, 2, 3, 4, 6, 8, 24, 72, 120, 168 hours post-dose.

[3] = target: T1, purinergic P2X4 receptors (Homo sapiens, UniProt Q99571); conditions: interaction with purinergic P2X4 receptors in humans; cited from earlier work
T1 sequence (Q99571 1-388): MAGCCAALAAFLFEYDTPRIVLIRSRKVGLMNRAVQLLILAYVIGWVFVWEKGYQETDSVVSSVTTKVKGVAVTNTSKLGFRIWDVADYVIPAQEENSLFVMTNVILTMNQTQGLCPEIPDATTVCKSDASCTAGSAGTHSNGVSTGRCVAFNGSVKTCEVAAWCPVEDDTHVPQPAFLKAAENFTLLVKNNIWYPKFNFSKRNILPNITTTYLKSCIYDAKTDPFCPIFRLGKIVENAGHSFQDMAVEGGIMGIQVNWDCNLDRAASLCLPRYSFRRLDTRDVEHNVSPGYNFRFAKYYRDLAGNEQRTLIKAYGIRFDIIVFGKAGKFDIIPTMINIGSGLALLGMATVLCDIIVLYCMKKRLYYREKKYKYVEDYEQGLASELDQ

glycine receptor (GlyR) = conditions: interaction with glycine receptor (GlyR) in humans; cited from earlier work
[4] = target: neuronal alpha-7-nicotinic receptor (Homo sapiens, UniProt P36544); conditions: interaction with neuronal alpha-7-nicotinic receptor in humans; cited from earlier work
Sequence of neuronal alpha-7-nicotinic receptor (P36544 23-502): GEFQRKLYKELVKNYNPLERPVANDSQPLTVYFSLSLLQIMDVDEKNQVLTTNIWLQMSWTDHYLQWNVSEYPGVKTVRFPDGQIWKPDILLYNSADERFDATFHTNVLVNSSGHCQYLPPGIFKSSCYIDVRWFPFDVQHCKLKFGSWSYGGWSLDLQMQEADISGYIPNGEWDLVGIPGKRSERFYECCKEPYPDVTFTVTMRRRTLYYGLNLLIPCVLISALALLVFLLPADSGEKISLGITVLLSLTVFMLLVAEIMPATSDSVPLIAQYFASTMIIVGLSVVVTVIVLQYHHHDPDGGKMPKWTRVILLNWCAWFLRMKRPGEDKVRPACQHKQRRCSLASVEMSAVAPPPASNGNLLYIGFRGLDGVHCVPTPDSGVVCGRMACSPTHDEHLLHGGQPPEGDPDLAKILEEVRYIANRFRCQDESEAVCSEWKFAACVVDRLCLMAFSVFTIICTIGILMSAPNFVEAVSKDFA

[5] = Solubility determination of ivermectin in excipients
Experimental: The solubility assessments were performed by continually adding a known amount of the API into each individual excipient and letting the excipient reach solubility equilibrium via API saturation (visible solid observed). The experiments were conducted at ambient conditions (25° C.) and were left to mix on a stir plate at 500 RPM for at least 72 hours.

[6] = in PEG 400, Sample: Control, T = 2 weeks
[7] = in PEG 400, Sample: Gel Stripe (1:1 w/w), T = 2 weeks
[8] = in Tween 80, Sample: 10% water, T = 1 months
[9] = in Tween 80, Sample: 10% water, T = 2 weeks
[10] = in Tween 80, Sample: Control, T = 0
[11] = in Tween 80, Sample: Control, T = 1 months
[12] = in Tween 80, Sample: Control, T = 2 weeks
[13] = in Tween 80, Sample: Gel Stripe (1:1 w/w), T = 1 months
[14] = in Tween 80, Sample: Gel Stripe (1:1 w/w), T = 2 weeks
[15] = in Vitamin E TPGS, Sample: 10% water, T = 1 months
[16] = in Vitamin E TPGS, Sample: 10% water, T = 2 weeks
[17] = in Vitamin E TPGS, Sample: Control, T = 0
[18] = in Vitamin E TPGS, Sample: Control, T = 1 months
[19] = in Vitamin E TPGS, Sample: Control, T = 2 weeks
[20] = in Vitamin E TPGS, Sample: Gel Stripe (1:1 w/w), T = 1 months
[21] = in Vitamin E TPGS, Sample: Gel Stripe (1:1 w/w), T = 2 weeks

## ivermectin
[1]; in PEG 400, Sample: Control, T = 0
  Total Impurities % (excluding API impurities %): 0.10 % adjusted area
[1]; [6]
  Chromatographic purity by HPLC (Assay): 89.36 % area
  Total Impurities % (excluding API impurities %): 8.54 % adjusted area
[1]; [7]
  Chromatographic purity by HPLC (Assay): 96.92 % area
  Total Impurities % (excluding API impurities %): 0.50 % adjusted area
[1]; [8]
  Chromatographic purity by HPLC (Assay): 91.18 % area
  Total Impurities % (excluding API impurities %): 6.94 % adjusted area
[1]; [9]
  Chromatographic purity by HPLC (Assay): 93.02 % area
  Total Impurities % (excluding API impurities %): 3.53 % adjusted area
[1]; [10]
  Chromatographic purity by HPLC (Assay): 97.53 % area
  Total Impurities % (excluding API impurities %): 0.16 % adjusted area
[1]; [11]
  Chromatographic purity by HPLC (Assay): 88.45 % area
  Total Impurities % (excluding API impurities %): 10.55 % adjusted area
[1]; [12]
  Chromatographic purity by HPLC (Assay): 91.87 % area
  Total Impurities % (excluding API impurities %): 4.86 % adjusted area
[1]; [13]
  Chromatographic purity by HPLC (Assay): 93.51 % area
  Total Impurities % (excluding API impurities %): 4.22 % adjusted area
[1]; [14]
  Chromatographic purity by HPLC (Assay): 93.97 % area
  Total Impurities % (excluding API impurities %): 2.43 % adjusted area
[1]; [15]
  Chromatographic purity by HPLC (Assay): 97.46 % area
  Total Impurities % (excluding API impurities %): <LOQ
[1]; [16]
  Chromatographic purity by HPLC (Assay): 96.99 % area
  Total Impurities % (excluding API impurities %): 0.42 % adjusted area
[1]; [17]
  Chromatographic purity by HPLC (Assay): 97.74 % area
  Total Impurities % (excluding API impurities %): <LOQ
[1]; [18]
  Chromatographic purity by HPLC (Assay): 97.37 % area
  Total Impurities % (excluding API impurities %): 0.11 % adjusted area
[1]; [19]
  Chromatographic purity by HPLC (Assay): 97.43 % area
  Total Impurities % (excluding API impurities %): <LOQ
[1]; [20]
  Chromatographic purity by HPLC (Assay): 97.74 % area
  Total Impurities % (excluding API impurities %): <LOQ
[1]; [21]
  Chromatographic purity by HPLC (Assay): 97.50 % area
  Total Impurities % (excluding API impurities %): <LOQ
[1]; oily vehicles including Maisine CC, fractionated coconut oil, and oleic acid
  Chemical compatibility with the API: good chemical compatibility
[2]
  AUC(0-t): 8259.31 ± 1032.95 ng·h/mL
  AUC(0-∞): 8273.53 ng·h/mL
  Cmax: 1722.67 ng/mL
  MRT(0-t): 10.58 h
  MRT(0-∞): 10.81 h
  T1/2: 14.82 ± 0.72 h
  Tmax: 30 min
[3]
  EC50: ~250 nM
Glycine receptor (GlyR)
  EC50: ~1200 nM
[4]
  EC50: ~30 µM
[5]; in Capryol 90, 25° C.
  Solubility: 150.92 mg/g
[5]; in Fractionated Coconut oil, 25° C.
  Solubility: 16.55 mg/g
[5]; in Glycerin, 25° C.
  Solubility: <0.1 mg/g
[5]; in Kolliphor EL, 25° C.
  Solubility: 95.85 mg/g
[5]; in Labrafil M 2125 CS, 25° C.
  Solubility: 35.32 mg/g
[5]; in Labrasol ALF, 25° C.
  Solubility: 126.36 mg/g
[5]; in LauroglycolTM FCC, 25° C.
  Solubility: 71.96 mg/g
[5]; in Maisine CC, 25° C.
  Solubility: 60.17 mg/g
[5]; in Masester E8120, 25° C.
  Solubility: 164.06 mg/g
[5]; in Medium Chain Triglyceride, 25° C.
  Solubility: 16.49 mg/g
[5]; in Oleic acid, 25° C.
  Solubility: 48.58 mg/g
[5]; in Olive oil, 25° C.
  Solubility: 4.71 mg/g
[5]; in PEG 400, 25° C.
  Solubility: 112.92 mg/g
[5]; in Propylene glycol, 25° C.
  Solubility: 25.61 mg/g
[5]; in Soybean oil, 25° C.
  Solubility: 6.72 mg/g
[5]; in Span 20, 25° C.
  Solubility: 97.66 mg/g
[5]; in Span 80, 25° C.
  Solubility: 54.04 mg/g
[5]; in Triacetin, 25° C.
  Solubility: 58.75 mg/g
[5]; in Tween 80, 25° C.
  Solubility: 88.26 mg/g
[5]; in Vitamin E TPGS, table title 25° C., text: conducted at 40° C.
  Solubility: 82.98 mg/g
